These are literature values, as cited in patent US11903950B2, “BCL-2 inhibitors” (Newave Pharmaceutical Inc., priority 2018, dated 2024).

The subject of series [1] is circulating platelets. As to conditions: clinical trial, patients.
The subject of series [2] is xenograft models of small-cell lung cancer and acute lymphoblastic leukemia. As to conditions: oral administration, alone.

Turning to `CC1(C)CCC(c2ccc(Cl)cc2)=C(CN2CCN(c3ccc(C(=O)NS(=O)(=O)c4ccc(N[C@H](CCN5CCOCC5)CSc5ccccc5)c(S(=O)(=O)C(F)(F)F)c4)cc3)CC2)C1` [ABT-263], in series [1], the “number of circulating platelets” value is “rapid, concentration-dependent decrease in the number of circulating platelets”. Moreover, in series [2], the tumor regression entry was “complete tumor regressions”.
